Measured values as given in patent US10988477B2 (Merck Patent GmbH, priority 2018, dated 2021).

Molecular target: GCN2 kinase (Homo sapiens, UniProt Q9P2K8)
Experiment: GCN2 enzyme inhibition assay (Transcreener ADP2 fluorescence polarization)
Format: biochemical
Conditions: compounds of Formula II; 280 μM ATP, 4 nM GCN2 kinase
Procedure, shortened: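 Inhibition of 4 nM GCN2 was measured with compound up to 8 μM final, ATP 280 μM and (RS)7 peptide 200 μM over a 1 h, 25 °C reaction. ADP FP readout; IC50 and Ki(app) calculated from percent inhibition.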

Sequence of GCN2 kinase (Q9P2K8 whole entry): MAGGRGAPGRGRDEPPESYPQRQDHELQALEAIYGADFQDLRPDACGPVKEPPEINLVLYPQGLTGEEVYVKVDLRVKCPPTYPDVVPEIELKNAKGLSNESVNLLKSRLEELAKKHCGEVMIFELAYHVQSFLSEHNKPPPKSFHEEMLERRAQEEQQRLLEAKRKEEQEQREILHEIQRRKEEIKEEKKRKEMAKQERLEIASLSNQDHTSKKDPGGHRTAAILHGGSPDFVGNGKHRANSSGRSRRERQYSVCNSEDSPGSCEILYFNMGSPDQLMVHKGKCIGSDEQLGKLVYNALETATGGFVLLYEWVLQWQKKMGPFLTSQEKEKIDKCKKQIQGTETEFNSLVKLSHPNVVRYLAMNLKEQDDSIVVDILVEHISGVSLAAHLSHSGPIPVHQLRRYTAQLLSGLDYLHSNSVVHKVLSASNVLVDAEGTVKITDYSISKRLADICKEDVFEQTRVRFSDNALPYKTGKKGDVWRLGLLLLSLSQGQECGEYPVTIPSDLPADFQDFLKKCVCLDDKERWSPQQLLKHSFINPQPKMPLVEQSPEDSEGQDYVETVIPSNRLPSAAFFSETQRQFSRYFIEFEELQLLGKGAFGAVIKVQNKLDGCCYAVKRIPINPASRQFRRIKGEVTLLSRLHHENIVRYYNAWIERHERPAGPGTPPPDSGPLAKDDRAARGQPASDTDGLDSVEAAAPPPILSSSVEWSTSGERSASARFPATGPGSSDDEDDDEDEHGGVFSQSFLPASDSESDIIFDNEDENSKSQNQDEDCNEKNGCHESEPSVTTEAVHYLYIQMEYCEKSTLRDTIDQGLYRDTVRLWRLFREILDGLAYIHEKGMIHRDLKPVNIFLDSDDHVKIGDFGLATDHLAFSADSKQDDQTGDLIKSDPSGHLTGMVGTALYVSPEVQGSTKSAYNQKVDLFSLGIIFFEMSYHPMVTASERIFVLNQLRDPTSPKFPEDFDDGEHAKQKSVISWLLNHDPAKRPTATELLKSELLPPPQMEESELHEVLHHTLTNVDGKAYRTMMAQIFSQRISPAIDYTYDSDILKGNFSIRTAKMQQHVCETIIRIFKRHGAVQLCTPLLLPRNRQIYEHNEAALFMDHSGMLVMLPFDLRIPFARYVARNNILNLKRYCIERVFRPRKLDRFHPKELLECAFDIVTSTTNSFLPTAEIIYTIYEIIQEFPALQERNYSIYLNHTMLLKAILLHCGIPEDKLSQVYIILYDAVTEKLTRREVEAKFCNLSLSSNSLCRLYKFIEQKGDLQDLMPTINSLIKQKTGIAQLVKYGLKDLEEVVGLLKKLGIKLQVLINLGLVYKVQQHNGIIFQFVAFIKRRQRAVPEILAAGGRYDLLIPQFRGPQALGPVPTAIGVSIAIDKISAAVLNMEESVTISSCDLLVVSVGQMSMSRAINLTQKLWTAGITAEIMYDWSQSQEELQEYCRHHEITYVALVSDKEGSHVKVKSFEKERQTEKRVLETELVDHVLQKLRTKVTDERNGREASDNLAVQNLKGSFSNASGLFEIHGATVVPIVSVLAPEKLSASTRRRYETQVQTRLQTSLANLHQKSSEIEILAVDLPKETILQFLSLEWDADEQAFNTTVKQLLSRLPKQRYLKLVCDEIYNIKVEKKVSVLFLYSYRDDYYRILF

Structure (SMILES)	Ki
FC(F)c1ccc2ncc(-c3ccnc(N4C[C@@H]5C[C@H]4CN5)c3)n2n1 [II-165, 3-(2-((1S,4S)-2,5-Diazabicyclo[2.2.1]heptan-2-yl)pyridin-4-yl)-6-(difluoromethyl)imidazo[1,2-b]pyridazine]	10 to 1000 nM
CNS(=O)(=O)CC1CCCN(c2cc(-c3cnc4ccc(C(F)F)nn34)ncn2)C1 (centres unmarked) [II-236, 1-(1-(6-(6-(Difluoromethyl)imidazo[1,2-b]pyridazin-3-yl)pyrimidin-4-yl)piperidin-3-yl)-N-methylmethanesulfonamide]	10 to 1000 nM
CCC1COC(CNS(C)(=O)=O)CN1c1cc(-c2cnc3ccc(C(F)F)nn23)ncn1 (centres unmarked) [II-269, N-((4-(6-(6-(Difluoromethyl)imidazo[1,2-b]pyridazin-3-yl)pyrimidin-4-yl)-5-ethylmorpholin-2-yl)methyl)methanesulfonamide]	10 to 1000 nM
COCCN1CCN(c2cc(-c3cnc4ccc(C(F)F)nn34)ncn2)C(C)C1CNS(C)(=O)=O (centres unmarked) [II-494, N-((4-(6-(6-(Difluoromethyl)imidazo[1,2-b]pyridazin-3-yl)pyrimidin-4-yl)-1-(2-methoxyethyl)-3-methylpiperazin-2-yl)methyl)methanesulfonamide]	< 10 nM
CC1C(CNS(C)(=O)=O)N(C(C)C)CCN1c1cc(-c2cnc3ccc(C(F)F)nn23)ncn1 (centres unmarked) [II-507, N-((4-(6-(6-(Difluoromethyl)imidazo[1,2-b]pyridazin-3-yl)pyrimidin-4-yl)-1-isopropyl-3-methylpiperazin-2-yl)methyl)methanesulfonamide]	< 10 nM
N#CCC1CN(c2cc(-c3cnc4ccc(C(F)F)nn34)ncn2)CCO1 (centres unmarked) [II-512, 2-(4-(6-(6-(Difluoromethyl)imidazo[1,2-b]pyridazin-3-yl)pyrimidin-4-yl)morpholin-2-yl)acetonitrile]	10 to 1000 nM
CN1CCN(c2cc(-c3cnc4ccc(C(F)F)nn34)ncn2)CC1CCO (centres unmarked) [II-514, 2-(4-(6-(6-(Difluoromethyl)imidazo[1,2-b]pyridazin-3-yl)pyrimidin-4-yl)-1-methylpiperazin-2-yl)ethan-1-ol]	10 to 1000 nM
N#CC1CCCN(c2cc(-c3cnc4ccc(C(F)(F)F)nn34)ncn2)C1 (centres unmarked) [II-534, 1-(6-(6-(Trifluoromethyl)imidazo[1,2-b]pyridazin-3-yl)pyrimidin-4-yl)piperidine-3-carbonitrile]	10 to 1000 nM
CC(=O)N1CCC(c2cc(-c3cnc4ccc(C(F)F)nn34)ncn2)CC1 [II-539]	10 to 1000 nM
COCCOC1CC(CNS(C)(=O)=O)CN(c2cc(-c3cnc4ccc(C(F)F)nn34)ncn2)C1 (centres unmarked) [II-549, N-((1-(6-(6-(Difluoromethyl)imidazo[1,2-b]pyridazin-3-yl)pyrimidin-4-yl)-5-(2-methoxyethoxy)piperidin-3-yl)methyl)methanesulfonamide]	10 to 1000 nM
COCCOC1CC(CNS(C)(=O)=O)CN(c2cc(-c3cnc4ccc(C(F)F)nn34)ncn2)C1 (centres unmarked) [II-550, N-((1-(6-(6-(Difluoromethyl)imidazo[1,2-b]pyridazin-3-yl)pyrimidin-4-yl)-5-(2-methoxyethoxy)piperidin-3-yl)methyl)methanesulfonamide]	< 10 nM
CC1CCC(NS(C)(=O)=O)CN1c1cc(-c2cnc3ccc(C(F)F)nn23)ncn1 (centres unmarked) [II-551, N-(1-(6-(6-(Difluoromethyl)imidazo[1,2-b]pyridazin-3-yl)pyrimidin-4-yl)-6-methylpiperidin-3-yl)methanesulfonamide]	10 to 1000 nM
CC1C(CNS(C)(=O)=O)N(C(C)(C)C)CCN1c1cc(-c2cnc3ccc(C(F)F)nn23)ncn1 (centres unmarked) [II-559, N-((1-(tert-Butyl)-4-(6-(6-(difluoromethyl)imidazo[1,2-b]pyridazin-3-yl)pyrimidin-4-yl)-3-methylpiperazin-2-yl)methyl)methanesulfonamide]	10 to 1000 nM
CS(=O)(=O)NCC1CN(c2cc(-c3cnc4ccc(C(F)F)nn34)ncn2)C[C@@H]2CCCN12 (stereo partly drawn) [II-560, N-(((8aS)-2-(6-(6-(Difluoromethyl)imidazo[1,2-b]pyridazin-3-yl)pyrimidin-4-yl)octahydropyrrolo[1,2-a]pyrazin-4-yl)methyl)methanesulfonamide]	< 10 nM
CS(=O)(=O)NCC1CN(c2cc(-c3cnc4ccc(C(F)F)nn34)ncn2)CCC12CC2 (centres unmarked) [II-566, N-((6-(6-(6-(Difluoromethyl)imidazo[1,2-b]pyridazin-3-yl)pyrimidin-4-yl)-6-azaspiro[2.5]octan-4-yl)methyl)methanesulfonamide]	< 10 nM
CC1(C)CN(c2cc(-c3cnc4ccc(C(F)F)nn34)ncn2)CC(CNS(C)(=O)=O)N1 (centres unmarked) [II-567, N-((4-(6-(6-(Difluoromethyl)imidazo[1,2-b]pyridazin-3-yl)pyrimidin-4-yl)-6,6-dimethylpiperazin-2-yl)methyl)methanesulfonamide]	10 to 1000 nM

Second part, the molecule after the results:

Ki	Structure (SMILES)
> 1000 nM	Clc1ccc2ncc(-c3ccnc(N4CCNCC4)c3)n2n1 [II-220, 6-Chloro-3-(2-(piperazin-1-yl)pyridin-4-yl)imidazo[1,2-b]pyridazine]
10 to 1000 nM	CN1CCN(c2cc(-c3cnc4ccc(C(F)F)nn34)ncn2)CC1CS(N)(=O)=O (centres unmarked) [II-464, (4-(6-(6-(Difluoromethyl)imidazo[1,2-b]pyridazin-3-yl)pyrimidin-4-yl)-1-methylpiperazin-2-yl)methanesulfonamide]
10 to 1000 nM	N#CCC1CCCN(c2cc(-c3cnc4ccc(C(F)(F)F)nn34)ncn2)C1 (centres unmarked) [II-501, 2-(1-(6-(6-(Trifluoromethyl)imidazo[1,2-b]pyridazin-3-yl)pyrimidin-4-yl)piperidin-3-yl)acetonitrile]
10 to 1000 nM	O=C(O)[C@@H]1CCCN(c2cc(-c3cnc4ccc(C(F)F)nn34)ncn2)C1 [II-508, (R)-1-(6-(6-(Difluoromethyl)imidazo[1,2-b]pyridazin-3-yl)pyrimidin-4-yl)piperidine-3-carboxylic acid]
10 to 1000 nM	N#CCC1CN(c2cc(-c3cnc4ccc(C(F)(F)F)nn34)ncn2)CCO1 (centres unmarked) [II-513, 2-(4-(6-(6-(Trifluoromethyl)imidazo[1,2-b]pyridazin-3-yl)pyrimidin-4-yl)morpholin-2-yl)acetonitrile]
< 10 nM	CC(=O)N1CCN(c2cc(-c3cnc4ccc(C(F)F)nn34)ncn2)C(C)C1CNS(C)(=O)=O (centres unmarked) [II-515, N-((1-Acetyl-4-(6-(6-(difluoromethyl)imidazo[1,2-b]pyridazin-3-yl)pyrimidin-4-yl)-3-methylpiperazin-2-yl)methyl)methanesulfonamide]
10 to 1000 nM	OC[C@@H]1CCCN(c2cc(-c3cnc4ccc(C(F)(F)F)nn34)ncn2)C1 [II-517, (R)-(1-(6-(6-(Trifluoromethyl)imidazo[1,2-b]pyridazin-3-yl)pyrimidin-4-yl)piperidin-3-yl)methanol]
< 10 nM	[2H]C([2H])(NS(C)(=O)=O)C1CCCN(c2cc(-c3cnc4ccc(C(F)F)nn34)ncn2)C1 (centres unmarked) [II-524, N-((1-(6-(6-(Difluoromethyl)imidazo[1,2-b]pyridazin-3-yl)pyrimidin-4-yl)piperidin-3-yl)methyl-d2)methanesulfonamide]
10 to 1000 nM	N#CC1CN(c2cc(-c3cnc4ccc(C(F)F)nn34)ncn2)CCO1 (centres unmarked) [II-531, 4-(6-(6-(Difluoromethyl)imidazo[1,2-b]pyridazin-3-yl)pyrimidin-4-yl)morpholine-2-carbonitrile]
10 to 1000 nM	N#CC1CCCN(c2cc(-c3cnc4ccc(C(F)F)nn34)ncn2)C1 (centres unmarked) [II-532, 1-(6-(6-(Difluoromethyl)imidazo[1,2-b]pyridazin-3-yl)pyrimidin-4-yl)piperidine-3-carbonitrile]
10 to 1000 nM	N#CC1CN(c2cc(-c3cnc4ccc(C(F)(F)F)nn34)ncn2)CCO1 (centres unmarked) [II-533, 4-(6-(6-(Trifluoromethyl)imidazo[1,2-b]pyridazin-3-yl)pyrimidin-4-yl)morpholine-2-carbonitrile]
10 to 1000 nM	CC1C(CCO)N(C)CCN1c1cc(-c2cnc3ccc(C(F)F)nn23)ncn1 (centres unmarked) [II-536, 2-(4-(6-(6-(Difluoromethyl)imidazo[1,2-b]pyridazin-3-yl)pyrimidin-4-yl)-1,3-dimethylpiperazin-2-yl)ethan-1-ol]
10 to 1000 nM	CC1CCC(NS(C)(=O)=O)CN1c1cc(-c2cnc3ccc(C(F)F)nn23)ncn1 (centres unmarked) [II-552, N-(1-(6-(6-(Difluoromethyl)imidazo[1,2-b]pyridazin-3-yl)pyrimidin-4-yl)-6-methylpiperidin-3-yl)methanesulfonamide]
10 to 1000 nM	CC1C(CO)CCCN1c1cc(-c2cnc3ccc(C(F)F)nn23)ncn1 (centres unmarked) [II-554, (1-(6-(6-(Difluoromethyl)imidazo[1,2-b]pyridazin-3-yl)pyrimidin-4-yl)-2-methylpiperidin-3-yl)methanol]
10 to 1000 nM	CC1C(CO)CCCN1c1cc(-c2cnc3ccc(C(F)F)nn23)ncn1 (centres unmarked) [II-555, (1-(6-(6-(Difluoromethyl)imidazo[1,2-b]pyridazin-3-yl)pyrimidin-4-yl)-2-methylpiperidin-3-yl)methanol]
10 to 1000 nM	CC1C(CO)N(C(C)(C)C)CCN1c1cc(-c2cnc3ccc(C(F)F)nn23)ncn1 (centres unmarked) [II-556, (1-(tert-Butyl)-4-(6-(6-(difluoromethyl)imidazo[1,2-b]pyridazin-3-yl)pyrimidin-4-yl)-3-methylpiperazin-2-yl)methanol]
10 to 1000 nM	[2H]C([2H])([2H])N1CCN(c2cc(-c3cnc4ccc(C(F)F)nn34)ncn2)C(C)C1CNS(C)(=O)=O (centres unmarked) [II-561, N-((4-(6-(6-(Difluoromethyl)imidazo[1,2-b]pyridazin-3-yl)pyrimidin-4-yl)-3-methyl-1-(methyl-d3)piperazin-2-yl)methyl)methanesulfonamide]
< 10 nM	[2H]C([2H])([2H])N1CCN(c2cc(-c3cnc4ccc(C(F)F)nn34)ncn2)C(C)C1CNS(C)(=O)=O (centres unmarked) [II-562, N-((4-(6-(6-(Difluoromethyl)imidazo[1,2-b]pyridazin-3-yl)pyrimidin-4-yl)-3-methyl-1-(methyl-d3)piperazin-2-yl)methyl)methanesulfonamide]
10 to 1000 nM	O=S1(=O)CCCC1C1CCCN(c2cc(-c3cnc4ccc(C(F)F)nn34)ncn2)C1 (centres unmarked) [II-563, 2-(1-(6-(6-(Difluoromethyl)imidazo[1,2-b]pyridazin-3-yl)pyrimidin-4-yl)piperidin-3-yl)tetrahydrothiophene 1,1-dioxide]
